Reference: US9624169B2, “Aryl- and heteroaryl-pyrrolidine-2-carboxamide compounds” (SciFluor Life Sciences, Inc., priority 2015, dated 2017)

System: formalin induced pain
Assay: Formalin induced pain model in rats (flinching, lifting, licking, biting and trembling of injected paw)
Details: for Effect on the flinching response (in words): at tested dose levels; for Effect on duration of paw lifting post-formalin injection (in words): all dose levels; for Effect on all testing behaviors (lifting, licking, biting and trembling) post-formalin injection (in words): all tested dose levels
[1] = Phase 1, group 4, 3 mg/ml (Table 2: 3 mg/kg P.O.)
[2] = Phase 1, group 5, 10 mg/ml (Table 2: 10 mg/kg P.O.)
[3] = Phase 1, group 6, 30 mg/ml (Table 2: 30 mg/kg P.O.)
[4] = Phase 2, group 4, 3 mg/ml (Table 2: 3 mg/kg P.O.)
[5] = Phase 2, group 5, 10 mg/ml (Table 2: 10 mg/kg P.O.)
[6] = Phase 2, group 6, 30 mg/ml (Table 2: 30 mg/kg P.O.)
[7] = phase 1, control compounds, Compound 1A at 3 mg/kg
[8] = Phase 1, group 3, 100 mg/ml (Table 2: 100 mg/kg P.O.)
[9] = Phase 2, group 3, 100 mg/ml (Table 2: 100 mg/kg P.O.)
[10] = Phase 1, group 2, 1 mg/ml (Table 2: 1 mg/kg I.P.)
[11] = Phase 2, group 2, 1 mg/ml (Table 2: 1 mg/kg I.P.)

NC(=O)[C@@H]1CC[C@H](c2ccc(OC(c3ccccc3F)C(F)(F)F)cc2)N1 (stereo partly drawn) [Compound 1A, (2S,5R)-5-(4-(2,2,2-trifluoro-1-(2-fluorophenyl)ethoxy)phenyl)pyrrolidine-2-carboxamide]
Group Mean of Average Duration of Licking, Biting and Trembling [1]: 34.2 ± 26.8 No. per 5 min | Group Mean of Average Duration of Lifting [1]: 37.1 ± 43.8 No. per 5 min | Group Mean of Average Flinching Response [1]: 15.2 ± 11.3 No. per 5 min | Group Mean of Total Testing Behavior [1]: 71.3 ± 56.4 No. per 5 min | Group Mean of Average Duration of Licking, Biting and Trembling [2]: 21.9 ± 25.1 No. per 5 min | Group Mean of Average Duration of Lifting [2]: 17.3 ± 22.8 No. per 5 min | Group Mean of Average Flinching Response [2]: 10.5 ± 3.7 No. per 5 min | Group Mean of Total Testing Behavior [2]: 39.2 ± 27.5 No. per 5 min | Group Mean of Average Duration of Licking, Biting and Trembling [3]: 17.4 ± 13.0 No. per 5 min | Group Mean of Average Duration of Lifting [3]: 21.3 ± 25.2 No. per 5 min | Group Mean of Average Flinching Response [3]: 22.0 ± 7.7 No. per 5 min | Group Mean of Total Testing Behavior [3]: 38.7 ± 31.8 No. per 5 min | Group Mean of Average Duration of Licking, Biting and Trembling [4]: 32.6 ± 27.6 No. per 5 min | Group Mean of Average Duration of Lifting [4]: 8.2 ± 10.4 No. per 5 min | Group Mean of Average Flinching Response [4]: 16.0 ± 10.2 No. per 5 min | Group Mean of Total Testing Behavior [4]: 40.8 ± 34.3 No. per 5 min | Group Mean of Average Duration of Licking, Biting and Trembling [5]: 20.7 ± 10.5 No. per 5 min | Group Mean of Average Duration of Lifting [5]: 5.1 ± 6.2 No. per 5 min | Group Mean of Average Flinching Response [5]: 16.6 ± 7.3 No. per 5 min | Group Mean of Total Testing Behavior [5]: 25.8 ± 15.1 No. per 5 min | Group Mean of Average Duration of Licking, Biting and Trembling [6]: 22.9 ± 14.5 No. per 5 min | Group Mean of Average Duration of Lifting [6]: 6.1 ± 6.7 No. per 5 min | Group Mean of Average Flinching Response [6]: 22.3 ± 12.5 No. per 5 min | Group Mean of Total Testing Behavior [6]: 29.0 ± 16.4 No. per 5 min | Effect on the flinching response (in words): no effect | Effect on duration of paw lifting post-formalin injection (in words) (phase 1): no effects | Effect on all testing behaviors (lifting, licking, biting and trembling) post-formalin injection (in words) (phase 1): no any effects | Effect on duration of licking, biting and trembling post-formalin injection (in words) [7]: neither the control compounds (morphine and gabapentin) nor Compound 1A (at 3 mg/kg) had any effects | Effect on duration of paw lifting post-formalin injection (in words) (phase 2): significant effect on inhibiting | Effect on all testing behaviors (lifting, licking, biting and trembling) post-formalin injection (in words) (phase 2): significantly reduced | Overall effect post formalin-induced pains (in words) (phase 2 observation period, especially at 10 mg/kg and 30 mg/kg): anti-nociceptive effects | Activity in the formalin pain model (in words) (rat, in vivo): active

NCC1(CC(=O)O)CCCCC1 [Gabapentin, reference compound]
Group Mean of Average Duration of Licking, Biting and Trembling [8]: 26.9 ± 14.7 No. per 5 min | Group Mean of Average Duration of Lifting [8]: 39.8 ± 41.5 No. per 5 min | Group Mean of Average Flinching Response [8]: 11.5 ± 5.7 No. per 5 min | Group Mean of Total Testing Behavior [8]: 66.6 ± 34.8 No. per 5 min | Group Mean of Average Duration of Licking, Biting and Trembling [9]: 17.1 ± 9.1 No. per 5 min | Group Mean of Average Duration of Lifting [9]: 20.7 ± 23.2 No. per 5 min | Group Mean of Average Flinching Response [9]: 16.0 ± 13.3 No. per 5 min | Group Mean of Total Testing Behavior [9]: 37.8 ± 23.7 No. per 5 min | Effect on the flinching response (in words): no effect | Overall effect of control compounds on formalin induced pain model (in words) (control compounds): consistent effect of inhibiting nociceptive pain | Effect on duration of paw lifting post-formalin injection (in words) (phase 1): no effects | Effect on all testing behaviors (lifting, licking, biting and trembling) post-formalin injection (in words) (phase 1): no any effects | Effect on duration of licking, biting and trembling post-formalin injection (in words) [7]: neither the control compounds (morphine and gabapentin) nor Compound 1A (at 3 mg/kg) had any effects | Effect on duration of licking, biting and trembling post-formalin injection (in words) (phase 2, 100 mg/kg): significantly decreased | Effect on duration of paw lifting post-formalin injection (in words) (phase 2): significant effect on inhibiting | Effect on all testing behaviors (lifting, licking, biting and trembling) post-formalin injection (in words) (phase 2): significantly reduced

CN1CC[C@]23c4c5ccc(O)c4O[C@H]2[C@@H](O)C=C[C@H]3[C@H]1C5 [morphine, reference compound]
Group Mean of Average Duration of Licking, Biting and Trembling [10]: 20.5 ± 13.1 No. per 5 min | Group Mean of Average Duration of Lifting [10]: 37.8 ± 27.7 No. per 5 min | Group Mean of Average Flinching Response [10]: 10.8 ± 7.7 No. per 5 min | Group Mean of Total Testing Behavior [10]: 58.3 ± 37.7 No. per 5 min | Group Mean of Average Duration of Licking, Biting and Trembling [11]: 12.1 ± 7.2 No. per 5 min | Group Mean of Average Duration of Lifting [11]: 3.2 ± 4.4 No. per 5 min | Group Mean of Average Flinching Response [11]: 12.3 ± 6.9 No. per 5 min | Group Mean of Total Testing Behavior [11]: 15.3 ± 9.0 No. per 5 min | Effect on the flinching response (in words): no effect | Overall effect of control compounds on formalin induced pain model (in words) (control compounds): consistent effect of inhibiting nociceptive pain | Effect on duration of paw lifting post-formalin injection (in words) (phase 1): no effects | Effect on all testing behaviors (lifting, licking, biting and trembling) post-formalin injection (in words) (phase 1): no any effects | Effect on duration of licking, biting and trembling post-formalin injection (in words) [7]: neither the control compounds (morphine and gabapentin) nor Compound 1A (at 3 mg/kg) had any effects | Effect on duration of licking, biting and trembling post-formalin injection (in words) (phase 2, 1 mg/kg): significantly decreased | Effect on duration of paw lifting post-formalin injection (in words) (phase 2): significant effect on inhibiting | Effect on all testing behaviors (lifting, licking, biting and trembling) post-formalin injection (in words) (phase 2): significantly reduced
